Paper PMC8226474, “Design, Syntheses, and Bioevaluations of Some Novel N^2-Acryloylbenzohydrazides as Chemostimulants and Cytotoxic Agents” (Medicines, 2021)
Like-named read-outs stand apart in the source and are kept apart here.

Key:
[1] = system: HCT 116 cells; experiment: Cytotoxicity assay, HCT 116 colon cancer cells; type: cell-based, human; details: for IC50 / SI (selectivity index): Table 4; for IC50: read-out: IC50 HCT 116; for SI (selectivity index): IC50 CRL 1790 / IC50 HCT 116
Source text: (§1) Evaluation of the cytotoxic properties of the compounds presented in Table 1, Table 2, Table 3 and Table 4 was undertaken using the procedure outlined in [7]. In brief, the HCT 116 cells were obtained from the ATCC and cultured in McCoy’s 5A medium. The CRL 1790 cells were obtained from the ATCC and cultured in Minimum Essential Medium. The MCF-7 and MDA-MBA-231 cells were obtained from the Saskatchewan Cancer Agency and cultured in DMEM. In each assay the culture medium was supplemented with 10% fetal bovine serum and 1% penicillin–streptomycin antibiotics. The time of the bioassays was 48 h, unless indicated otherwise. All determinations were carried out in triplicate on three different occasions.

[2] = system: CRL 1790 cells; experiment: Cytotoxicity assay, non-malignant CRL 1790 colon cells; type: cell-based; details: Homo sapiens, 48 h
Source text: as §1

[3] = system: HCT 116 cells; experiment: Mitochondrial membrane potential of HCT 116 cells (TMRE dye); type: cell-based, human; details: IC50 concentration towards HCT 116, 48 h, Figure 4
Source text: The method of Crowley et al. was employed in order to ascertain the effects of 1m, 7a, e, g, and 5-FU on the mitochondrial membrane potential of HCT 116 cells.
The decision was made to experiment with another method for determining the effect of compounds on the MMP. In this assay, the dye used was tetramethylrhodamine ethyl ester (TMRE), which can be found in the mitochondria of healthy cells. However, in apoptotic cells, the dye is released into the cytosol, leading to a decrease in the fluorescence signal.

[4] = system: HCT 116 cells; experiment: ROS levels in HCT 116 cells (DCF-DA dye); type: cell-based, human; details: IC50 concentration towards HCT 116; DCF-DA fluorescence; Figure 5
Description: In this assay, the dye 2,7-dichlorofluorescein diacetate (DCF-DA) was used, and the effects of 1m, 7a, e, g, and 5-FU on the ROS levels in HCT 116 cells were determined by the method of [11].
The evaluation of 1m, […], e, and g for their capacity to increase the concentration of ROS in HCT 116 cells used 2′,7′-dichlorofluorescein diacetate. This dye is deacetylated in cells, and is converted into a non-fluorescent compound that reacts with ROS to form 2′,7′-dichlorofluorescein, which is fluorescent.

[5] = system: MCF-7 cells; experiment: Cytotoxicity assay, MCF-7 breast cancer cells; type: cell-based, human
Source text: as §1

[6] = system: MDA-MB-231 cells; experiment: Cytotoxicity assay, MDA-MB-231 breast cancer cells; type: cell-based, human; details: Homo sapiens, MDA-MB-231, 48 h, read-out: percentage inhibition of MDA-MB-231 cells
Source text: as §1

[7] = Table 4, read-out: IC50 CRL 1790
[8] = ratio of IC50 values towards HCT 116 cells

melting point [°C] | SMILES | IC50 ([1]; Homo sapiens, HCT-116, 48 h) [µM] | SI (selectivity index) [1] | IC50 [2, 7] [µM] | effect on mitochondrial membrane potential of HCT 116 cells [3] | effect on ROS levels in HCT 116 cells [4] | times more potent than 5-FU [1, 8] [times] | times the antineoplastic activity of melphalan [1, 8] [times] | inhibition at 10 µM ([1]; Homo sapiens, HCT-116, 10 µM, 48 h, read-out: percentage inhibition of HCT 116 cells) [%] | inhibition at 100 µM ([1]; Homo sapiens, HCT-116, 100 µM, 48 h, read-out: percentage inhibition of HCT 116 cells) [%] | inhibition at 10 µM ([5]; Homo sapiens, MCF7, 10 µM, 48 h, read-out: percentage inhibition of MCF-7 cells) [%] | inhibition at 100 µM ([5]; Homo sapiens, MCF7, 100 µM, 48 h, read-out: percentage inhibition of MCF-7 cells) [%] | IC50 ([5]; Homo sapiens, MCF7, Table 2, 48 h, read-out: Neoplastic Cells IC50, MCF-7) [µM] | SI (selectivity index) ([5]; IC50 CRL 1790 / IC50 MCF-7, Table 2) | inhibition at 10 µM ([6]; 10 µM) [%] | inhibition at 100 µM ([6]; 100 µM) [%] | IC50 ([2]; Table 2, read-out: Non-Malignant CRL 1790 Cells IC50) [µM] | times more potent than 1a [1, 8] [times]
190 to 192 | COc1ccc(C(=O)NNC(=O)CCN2CC(=Cc3ccc(C)cc3)C(=O)C(=Cc3ccc(C)cc3)C2)cc1OC [7g, 3,5-Bis(4-methylbenzylidene)-1-[3-(3,4-dimethoxyphenylcarbonylaminoamino)-3-oxo-1-propyl]-4-piperidone] | 1.94 ± 0.18 | 4.76 | 9.24 ± 0.52 | only 7e reduces the electrochemical potential of the mitochondria | increase the fluorescence intensity | – | – | – | – | – | – | – | – | – | – | – | –
151 to 153 | C=CC(=O)NNC(=O)c1ccccc1C [1j, N^2-Acryloyl-2-methylbenzohydrazide] | – | – | – | – | – | – | – | 10.4 ± 1.61 | 62.1 ± 2.48 | 53.3 ± 3.07 | > 100 | 9.14 ± 1.31 | >10.9 | -2.64 ± 2.37 | 46.8 ± 3.63 | > 100 | –
154 to 156 | O=C(CCN1CC(=Cc2ccccc2)C(=O)C(=Cc2ccccc2)C1)NNC(=O)c1ccccc1 [7a, 3,5-Bis(benzylidene)-1-[3-(phenylcarbonylaminoamino)-3-oxo-1-propyl]-4-piperidone] | 1.38 ± 0.25 | – | 12.3 ± 1.09 | only 7e reduces the electrochemical potential of the mitochondria | increase the fluorescence intensity | – | – | – | – | – | – | – | – | – | – | – | 26.7

SMILES | melting point [°C] | IC50 ([1]; Homo sapiens, HCT-116, 48 h) [µM] | SI (selectivity index) [1] | IC50 [2, 7] [µM] | effect on mitochondrial membrane potential of HCT 116 cells [3] | effect on ROS levels in HCT 116 cells [4] | times more potent than 5-FU [1, 8] [times] | times the antineoplastic activity of melphalan [1, 8] [times] | inhibition at 10 µM ([1]; Homo sapiens, HCT-116, 10 µM, 48 h, read-out: percentage inhibition of HCT 116 cells) [%] | inhibition at 100 µM ([1]; Homo sapiens, HCT-116, 100 µM, 48 h, read-out: percentage inhibition of HCT 116 cells) [%] | inhibition at 10 µM ([5]; Homo sapiens, MCF7, 10 µM, 48 h, read-out: percentage inhibition of MCF-7 cells) [%] | inhibition at 100 µM ([5]; Homo sapiens, MCF7, 100 µM, 48 h, read-out: percentage inhibition of MCF-7 cells) [%] | IC50 ([5]; Homo sapiens, MCF7, Table 2, 48 h, read-out: Neoplastic Cells IC50, MCF-7) [µM] | SI (selectivity index) ([5]; IC50 CRL 1790 / IC50 MCF-7, Table 2) | inhibition at 10 µM ([6]; 10 µM) [%] | inhibition at 100 µM ([6]; 100 µM) [%] | IC50 ([2]; Table 2, read-out: Non-Malignant CRL 1790 Cells IC50) [µM] | times more potent than 1a [1, 8] [times]
COc1ccc(C(=O)NNC(=O)CCN2CC(=Cc3ccc([N+](=O)[O-])cc3)C(=O)C(=Cc3ccc([N+](=O)[O-])cc3)C2)cc1OC [7e, 3,5-Bis(4-nitrobenzylidene)-1-[3-(3,4-dimethoxyphenylcarbonylaminoamino)-3-oxo-1-propyl]-4-piperidone] | 153 to 158 | 0.28 ± 0.01 | 16.3 | 4.57 ± 0.53 | reduces the electrochemical potential of the mitochondria | increase the fluorescence intensity | 14.7 | 119 | – | – | – | – | – | – | – | – | – | –
